Literature values in US20040120916A1, “Contact lens care compositions, methods of use and preparation which protect ocular tissue membrane integrity” (ADVANCED MEDICAL OPTICS, INC., priority 2002, published 2004).

Experiments:
[1] = tested on: rat large-intestinal tissue; conditions: decrease caused by sodium laurate
[2] = tested on: rat large-intestinal tissue
[3] = tested on: lipopolysaccharide (LPS)-intoxicated rats; conditions: LPS rat stomachs irrigated with acid solution
[4] = tested on: human corneal epithelial cells; conditions: 450 mOsm/kg hypertonic medium; 1 mM taurine (0.0125 w/v %)

## NCCS(=O)(=O)O [taurine]
[1]
  transepithelial electrical resistance, a measure of cell membrane integrity: significantly suppressed the decrease
[2]
  release of histamine enhanced by sodium laurate: suppress the release of histamine
[3]
  ulcerogenic parameters including mucosal histamine concentrations: dose-dependent attenuations
[4]
  cell survival: significantly increased cell survival
